Results on 27 compounds are retold here after ChEMBL document CHEMBL4028801, “A multifactorial approach to hepatobiliary transporter assessment enables improved therapeutic compound development” (Toxicol Sci, 2013).

Structures can show the parent of a compound that is named as a salt.

For experiment [1], the target named is ATP-binding cassette sub-family C member 3 (Homo sapiens, UniProt O15438). The experiment can be described thus: Inhibition of human MRP3 overexpressed in Sf9 insect cell membrane vesicles assessed as uptake of [3H]-estradiol-17beta-D-glucuronide in presence of ATP and GSH measured after 10 mins by membrane vesicle transport assay. Format: ADME, cell-based.

Experiment [2] deals with T1, ATP-binding cassette sub-family C member 4 (Homo sapiens, UniProt O15439).
T1 sequence (O15439 whole entry): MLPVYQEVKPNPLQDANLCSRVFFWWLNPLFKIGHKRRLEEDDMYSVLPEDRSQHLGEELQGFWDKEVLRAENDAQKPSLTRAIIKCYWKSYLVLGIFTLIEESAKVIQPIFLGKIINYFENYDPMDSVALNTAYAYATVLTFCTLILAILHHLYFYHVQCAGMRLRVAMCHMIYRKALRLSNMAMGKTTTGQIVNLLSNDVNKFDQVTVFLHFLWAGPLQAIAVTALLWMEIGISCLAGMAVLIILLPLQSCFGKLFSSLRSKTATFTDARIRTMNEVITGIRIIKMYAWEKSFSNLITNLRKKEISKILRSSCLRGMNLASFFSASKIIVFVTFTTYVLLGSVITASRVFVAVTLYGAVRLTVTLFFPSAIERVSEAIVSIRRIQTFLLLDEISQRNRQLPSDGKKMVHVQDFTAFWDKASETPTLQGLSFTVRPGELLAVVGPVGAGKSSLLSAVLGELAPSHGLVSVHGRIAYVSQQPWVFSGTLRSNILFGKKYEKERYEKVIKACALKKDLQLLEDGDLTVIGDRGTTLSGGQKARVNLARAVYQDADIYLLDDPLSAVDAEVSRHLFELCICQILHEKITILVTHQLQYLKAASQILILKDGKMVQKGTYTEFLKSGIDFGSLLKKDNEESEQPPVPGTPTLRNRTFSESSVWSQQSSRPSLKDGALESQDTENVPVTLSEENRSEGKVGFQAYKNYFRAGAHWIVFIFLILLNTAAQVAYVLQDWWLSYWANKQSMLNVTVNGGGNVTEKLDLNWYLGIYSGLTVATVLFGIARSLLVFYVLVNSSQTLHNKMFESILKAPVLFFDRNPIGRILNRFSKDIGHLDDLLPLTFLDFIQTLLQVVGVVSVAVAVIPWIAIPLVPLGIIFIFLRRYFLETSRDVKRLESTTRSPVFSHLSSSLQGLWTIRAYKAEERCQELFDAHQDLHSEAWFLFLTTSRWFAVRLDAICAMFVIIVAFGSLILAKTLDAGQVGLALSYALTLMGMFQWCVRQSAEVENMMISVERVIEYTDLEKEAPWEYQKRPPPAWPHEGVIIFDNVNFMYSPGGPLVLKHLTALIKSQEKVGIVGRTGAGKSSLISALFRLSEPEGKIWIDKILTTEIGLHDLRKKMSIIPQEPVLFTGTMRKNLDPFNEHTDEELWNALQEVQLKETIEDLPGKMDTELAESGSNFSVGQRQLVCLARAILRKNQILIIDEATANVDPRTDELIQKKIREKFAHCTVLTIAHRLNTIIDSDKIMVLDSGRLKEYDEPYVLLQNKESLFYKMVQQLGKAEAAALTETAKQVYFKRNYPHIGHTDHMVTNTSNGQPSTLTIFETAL
Description: Inhibition of human MRP4 overexpressed in Sf9 cell membrane vesicles assessed as uptake of [3H]-estradiol-17beta-D-glucuronide in presence of ATP and GSH measured after 20 mins by membrane vesicle transport assay. Format: ADME, cell-based.

Experiment [3] has as its target ATP-binding cassette sub-family C member 2 (Homo sapiens, UniProt Q92887). The experiment can be described thus: Inhibition of human MRP2 overexpressed in Sf9 cell membrane vesicles assessed as uptake of [3H]-estradiol-17beta-D-glucuronide in presence of ATP and GSH measured after 20 mins by membrane vesicle transport assay.
In experiment [4] the target is Bile salt export pump (Homo sapiens, UniProt O95342). Description: Inhibition of human BSEP overexpressed in Sf9 cell membrane vesicles assessed as uptake of [3H]-taurocholate in presence of ATP measured after 15 to 20 mins by membrane vesicle transport assay. Format: ADME, cell-based.
Chain of Bile salt export pump (O95342 whole entry): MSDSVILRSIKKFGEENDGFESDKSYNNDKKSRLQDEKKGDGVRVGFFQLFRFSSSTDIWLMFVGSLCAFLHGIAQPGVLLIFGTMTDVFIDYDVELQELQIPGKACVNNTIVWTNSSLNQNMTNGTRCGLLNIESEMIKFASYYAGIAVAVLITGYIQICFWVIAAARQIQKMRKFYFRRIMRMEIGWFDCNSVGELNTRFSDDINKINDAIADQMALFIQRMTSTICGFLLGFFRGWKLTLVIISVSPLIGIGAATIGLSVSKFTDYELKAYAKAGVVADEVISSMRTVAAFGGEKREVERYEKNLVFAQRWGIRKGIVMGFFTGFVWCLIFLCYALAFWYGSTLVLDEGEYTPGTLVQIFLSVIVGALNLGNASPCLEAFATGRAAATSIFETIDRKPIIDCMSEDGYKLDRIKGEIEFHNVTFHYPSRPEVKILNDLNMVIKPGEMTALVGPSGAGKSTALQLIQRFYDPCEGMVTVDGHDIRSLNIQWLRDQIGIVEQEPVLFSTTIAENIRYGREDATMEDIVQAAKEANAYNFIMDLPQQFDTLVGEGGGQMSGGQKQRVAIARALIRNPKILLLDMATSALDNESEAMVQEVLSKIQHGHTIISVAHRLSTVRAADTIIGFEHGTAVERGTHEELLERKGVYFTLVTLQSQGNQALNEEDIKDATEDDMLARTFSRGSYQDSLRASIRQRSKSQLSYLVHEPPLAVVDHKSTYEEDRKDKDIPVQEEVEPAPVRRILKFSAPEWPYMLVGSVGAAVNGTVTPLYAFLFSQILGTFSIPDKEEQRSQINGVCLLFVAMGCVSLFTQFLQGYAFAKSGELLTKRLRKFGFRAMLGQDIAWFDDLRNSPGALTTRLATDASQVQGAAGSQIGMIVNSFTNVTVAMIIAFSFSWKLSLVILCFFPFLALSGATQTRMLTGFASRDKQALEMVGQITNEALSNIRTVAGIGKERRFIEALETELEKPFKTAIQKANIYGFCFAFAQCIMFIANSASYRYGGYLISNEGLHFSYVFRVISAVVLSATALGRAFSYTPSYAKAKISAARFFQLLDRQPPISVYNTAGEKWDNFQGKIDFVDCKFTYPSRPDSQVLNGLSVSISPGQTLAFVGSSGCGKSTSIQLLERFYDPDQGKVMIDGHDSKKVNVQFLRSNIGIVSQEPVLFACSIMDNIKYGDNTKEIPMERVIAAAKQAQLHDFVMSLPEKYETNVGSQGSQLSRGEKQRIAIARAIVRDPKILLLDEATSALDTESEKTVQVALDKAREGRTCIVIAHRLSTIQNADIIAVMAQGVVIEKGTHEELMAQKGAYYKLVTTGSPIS

Chain of ATP-binding cassette sub-family C member 2 (Q92887 whole entry): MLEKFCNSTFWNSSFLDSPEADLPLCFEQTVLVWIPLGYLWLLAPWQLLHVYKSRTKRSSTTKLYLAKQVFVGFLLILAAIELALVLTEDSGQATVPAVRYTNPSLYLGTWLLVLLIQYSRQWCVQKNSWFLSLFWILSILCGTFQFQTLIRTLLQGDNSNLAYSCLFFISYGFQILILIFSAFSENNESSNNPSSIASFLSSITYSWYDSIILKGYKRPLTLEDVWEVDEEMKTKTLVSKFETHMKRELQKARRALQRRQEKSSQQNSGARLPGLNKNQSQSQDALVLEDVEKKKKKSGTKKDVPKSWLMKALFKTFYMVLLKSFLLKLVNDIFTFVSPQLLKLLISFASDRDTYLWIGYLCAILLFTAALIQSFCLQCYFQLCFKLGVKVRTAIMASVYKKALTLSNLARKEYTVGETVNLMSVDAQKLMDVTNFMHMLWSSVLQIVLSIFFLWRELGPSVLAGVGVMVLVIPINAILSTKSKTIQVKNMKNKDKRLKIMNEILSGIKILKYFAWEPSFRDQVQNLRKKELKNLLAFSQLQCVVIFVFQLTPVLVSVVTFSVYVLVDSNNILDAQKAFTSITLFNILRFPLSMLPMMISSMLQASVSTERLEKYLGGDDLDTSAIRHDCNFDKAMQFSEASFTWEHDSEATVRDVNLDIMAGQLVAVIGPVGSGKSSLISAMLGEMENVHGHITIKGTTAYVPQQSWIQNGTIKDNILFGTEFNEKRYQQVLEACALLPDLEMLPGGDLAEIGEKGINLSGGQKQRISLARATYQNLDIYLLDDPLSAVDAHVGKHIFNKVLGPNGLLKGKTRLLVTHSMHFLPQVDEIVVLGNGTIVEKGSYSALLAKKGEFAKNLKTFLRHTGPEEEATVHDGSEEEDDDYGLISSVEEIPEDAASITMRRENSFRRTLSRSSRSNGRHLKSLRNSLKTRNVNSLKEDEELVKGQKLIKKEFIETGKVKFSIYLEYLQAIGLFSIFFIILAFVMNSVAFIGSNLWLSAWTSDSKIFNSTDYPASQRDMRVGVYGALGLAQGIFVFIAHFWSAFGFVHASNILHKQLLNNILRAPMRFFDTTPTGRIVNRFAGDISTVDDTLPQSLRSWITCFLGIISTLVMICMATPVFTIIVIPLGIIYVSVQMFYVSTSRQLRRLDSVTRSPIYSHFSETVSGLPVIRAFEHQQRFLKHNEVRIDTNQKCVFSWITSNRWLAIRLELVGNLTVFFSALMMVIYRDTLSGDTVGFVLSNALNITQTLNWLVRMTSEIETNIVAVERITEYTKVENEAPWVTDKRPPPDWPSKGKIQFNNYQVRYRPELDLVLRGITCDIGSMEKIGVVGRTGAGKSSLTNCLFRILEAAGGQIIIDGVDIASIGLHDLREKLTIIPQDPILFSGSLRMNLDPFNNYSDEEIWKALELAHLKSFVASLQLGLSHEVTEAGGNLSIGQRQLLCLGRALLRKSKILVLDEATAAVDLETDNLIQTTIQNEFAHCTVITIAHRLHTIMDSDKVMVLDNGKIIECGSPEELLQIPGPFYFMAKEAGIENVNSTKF
Chain of ATP-binding cassette sub-family C member 3 (O15438 whole entry): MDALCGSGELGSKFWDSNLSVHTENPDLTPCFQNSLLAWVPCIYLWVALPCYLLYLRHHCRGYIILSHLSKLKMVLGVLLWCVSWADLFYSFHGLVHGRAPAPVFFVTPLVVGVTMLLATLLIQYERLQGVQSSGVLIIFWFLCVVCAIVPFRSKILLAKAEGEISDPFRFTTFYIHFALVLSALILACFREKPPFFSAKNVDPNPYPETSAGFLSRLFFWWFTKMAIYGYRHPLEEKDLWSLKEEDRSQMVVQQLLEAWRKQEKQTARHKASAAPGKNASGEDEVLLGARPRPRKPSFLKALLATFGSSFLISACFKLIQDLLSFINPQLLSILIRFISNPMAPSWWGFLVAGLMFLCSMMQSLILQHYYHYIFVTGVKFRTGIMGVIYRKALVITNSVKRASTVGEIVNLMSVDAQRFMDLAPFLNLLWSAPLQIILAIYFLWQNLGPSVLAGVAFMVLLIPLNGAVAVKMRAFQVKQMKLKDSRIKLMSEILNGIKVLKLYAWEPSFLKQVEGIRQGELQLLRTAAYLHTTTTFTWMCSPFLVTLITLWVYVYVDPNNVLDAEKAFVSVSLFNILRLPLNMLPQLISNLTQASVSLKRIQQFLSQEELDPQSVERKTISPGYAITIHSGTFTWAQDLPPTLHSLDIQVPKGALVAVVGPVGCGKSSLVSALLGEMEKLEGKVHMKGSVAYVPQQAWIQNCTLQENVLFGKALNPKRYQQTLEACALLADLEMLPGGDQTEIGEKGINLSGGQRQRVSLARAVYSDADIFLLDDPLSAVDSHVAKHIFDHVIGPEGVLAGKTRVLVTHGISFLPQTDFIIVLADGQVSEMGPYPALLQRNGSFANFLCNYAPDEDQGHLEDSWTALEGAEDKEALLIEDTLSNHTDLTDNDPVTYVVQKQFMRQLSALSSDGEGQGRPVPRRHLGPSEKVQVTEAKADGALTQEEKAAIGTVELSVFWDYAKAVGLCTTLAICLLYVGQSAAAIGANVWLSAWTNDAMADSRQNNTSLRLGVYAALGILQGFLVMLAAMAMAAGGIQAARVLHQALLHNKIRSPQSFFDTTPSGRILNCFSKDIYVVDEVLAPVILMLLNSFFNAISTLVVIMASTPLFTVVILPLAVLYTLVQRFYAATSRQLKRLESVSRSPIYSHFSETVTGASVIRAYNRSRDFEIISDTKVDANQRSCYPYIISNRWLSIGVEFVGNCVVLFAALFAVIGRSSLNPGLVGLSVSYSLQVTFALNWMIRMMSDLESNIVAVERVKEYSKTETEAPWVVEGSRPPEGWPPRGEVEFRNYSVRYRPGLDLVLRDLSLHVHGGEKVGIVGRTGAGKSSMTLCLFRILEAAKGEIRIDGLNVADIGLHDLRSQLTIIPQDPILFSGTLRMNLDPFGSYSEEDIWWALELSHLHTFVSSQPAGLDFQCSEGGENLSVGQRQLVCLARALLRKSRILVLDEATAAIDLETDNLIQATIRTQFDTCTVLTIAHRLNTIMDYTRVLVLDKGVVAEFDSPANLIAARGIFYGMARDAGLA

A word on the IC50: it is the concentration needed to halve the response being measured. As for `C#C[C@]1(O)C=C[C@H]2[C@@H]3CCC4=CC(=O)CC[C@@H]4[C@H]3CC[C@@]21CC` [GESTODENE], the IC50 in experiment [1], in experiment [2], in experiment [3] and in experiment [4] was over 133 µM each time.
For `Cc1cc(NS(=O)(=O)c2ccc(N)cc2)no1` [SULFAMETHOXAZOLE], the IC50 in experiment [1], in experiment [2], in experiment [3] and in experiment [4] was over 133 µM in each case.
For the compound `CCCc1cc(=O)[nH]c(=S)[nH]1` [PROPYLTHIOURACIL], the IC50 in experiment [1], in experiment [2], in experiment [3] and in experiment [4] was over 133 µM in each case.
For the compound `COc1cc(NS(C)(=O)=O)ccc1Nc1c2ccccc2nc2ccccc12` [AMSACRINE], the IC50 in experiment [1] was over 133 µM; in experiment [2] it was 7.43 µM; in experiment [3], over 133 µM; in experiment [4] it was over 133 µM.
For the compound `COC(=O)[C@@H]1CC2=CC(=O)CC[C@]2(C)[C@@]23O[C@@H]2C[C@@]2(C)[C@@H](CC[C@@]24CCC(=O)O4)[C@H]13` [EPLERENONE], the IC50 in experiment [1], in experiment [2], in experiment [3] and in experiment [4] was over 133 µM each time.
For the compound `CS(=O)(=O)c1ccc(C2=C(c3ccccc3)C(=O)OC2)cc1` [ROFECOXIB], the IC50 in experiment [1], in experiment [2], in experiment [3] and in experiment [4] was over 133 µM in each case.
As for `NCC[C@H](O)C(=O)N[C@@H]1C[C@H](N)[C@@H](O[C@H]2O[C@H](CN)[C@@H](O)[C@H](O)[C@H]2O)[C@H](O)[C@H]1O[C@H]1O[C@H](CO)[C@@H](O)[C@H](N)[C@H]1O` [AMIKACIN], the IC50 in experiment [1], in experiment [2], in experiment [3] and in experiment [4] was over 133 µM in each case.
For the compound `C=CCN1CC[C@]23c4c5ccc(O)c4O[C@H]2C(=O)CC[C@@]3(O)[C@H]1C5` [NALOXONE], the IC50 in experiment [1], in experiment [2], in experiment [3] and in experiment [4] was over 133 µM throughout.
For the compound enfuvirtide, the 50% inhibitory concentration (IC50) is over 133 µM in experiment [1], 7.5 µM in experiment [2], over 133 µM in experiment [3] and over 133 µM in experiment [4].
For the compound `CCCCC[C@H](O)/C=C/[C@@H]1[C@@H](C/C=C\CCCC(=O)O)[C@@H](O)C[C@H]1O` [DINOPROST TROMETHAMINE], the IC50 in experiment [1] was […]; in experiment [2] it was 7.1 µM; in experiment [3] it was […]; in experiment [4], […].
Turning to `CCC(=O)O[C@]1(C(=O)SCF)[C@H](C)C[C@H]2[C@@H]3C[C@H](F)C4=CC(=O)C=C[C@]4(C)[C@@]3(F)[C@@H](O)C[C@@]21C` [FLUTICASONE PROPIONATE], the 50% inhibitory concentration (IC50) in experiment [1], in experiment [2], in experiment [3] and in experiment [4] was over 133 µM in each case.
In the case of `O=P1(NCCCl)OCCCN1CCCl` (stereo not drawn) [IFOSFAMIDE], the IC50 in experiment [1], in experiment [2], in experiment [3] and in experiment [4] was over 133 µM throughout.
As to `CC1COc2c(N3CCN(C)CC3)c(F)cc3c(=O)c(C(=O)O)cn1c23` (stereo not drawn) [OFLOXACIN], the half-inhibitory concentration (IC50) in experiment [1], in experiment [2], in experiment [3] and in experiment [4] was over 133 µM each time.
For `C[C@H]1C[C@H]2[C@@H]3CCC4=CC(=O)C=C[C@]4(C)[C@@]3(F)[C@@H](O)C[C@]2(C)[C@@]1(O)C(=O)CO` [BETAMETHASONE], the IC50 in experiment [1], in experiment [2], in experiment [3] and in experiment [4] was over 133 µM each time.
For the compound `C=C1[C@H](CO)[C@@H](O)C[C@@H]1n1cnc2c(=O)[nH]c(N)nc21`, the IC50 in experiment [1], in experiment [2], in experiment [3] and in experiment [4] was over 133 µM throughout.
`CN(C)c1cc(NC(=O)CNC(C)(C)C)c(O)c2c1C[C@H]1C[C@H]3[C@H](N(C)C)C(O)=C(C(N)=O)C(=O)[C@@]3(O)C(O)=C1C2=O` [TIGECYCLINE]: the IC50 in experiment [1], in experiment [2], in experiment [3] and in experiment [4] was over 133 µM each time.
Consider `C[C@@H]1CC[C@H]2[C@@H](C)C(=O)O[C@@H]3O[C@@]4(C)CC[C@@H]1[C@]32OO4` [ARTEMISININ], for which the IC50 in experiment [1], in experiment [2], in experiment [3] and in experiment [4] was over 133 µM throughout.
For `CC(C(=O)O)c1ccc2c(c1)[nH]c1ccc(Cl)cc12` (stereo not drawn) [CARPROFEN], the IC50 was over 133 µM in experiment [1], 3 µM in experiment [2], over 133 µM in experiment [3] and over 133 µM in experiment [4].
For `COc1cc([C@@H]2c3cc4c(cc3[C@@H](O[C@@H]3O[C@@H]5CO[C@@H](c6cccs6)O[C@H]5[C@H](O)[C@H]3O)[C@H]3COC(=O)[C@H]23)OCO4)cc(OC)c1O` [TENIPOSIDE], the IC50 was 20.6 µM in experiment [1], 34.9 µM in experiment [2], over 133 µM in experiment [3] and over 133 µM in experiment [4].
`O=C(NC1CCN(CCc2c[nH]c3ccccc23)CC1)c1ccccc1` [INDORAMIN]: the IC50 in experiment [1], in experiment [2], in experiment [3] and in experiment [4] was over 133 µM in each case.
With `CC(C)C(=O)Oc1ccc(CO)cc1[C@H](CCN(C(C)C)C(C)C)c1ccccc1` [FESOTERODINE FUMARATE], the IC50 in experiment [1], in experiment [2], in experiment [3] and in experiment [4] was over 133 µM each time.
On to `O=C1CN=C(c2ccccc2)c2cc([N+](=O)[O-])ccc2N1` [NITRAZEPAM], for which the concentration for half-maximal inhibition (IC50) in experiment [1], in experiment [2], in experiment [3] and in experiment [4] was over 133 µM in each case.
`CC(C)C[C@H](NC(=O)[C@@H](COC(C)(C)C)NC(=O)[C@H](Cc1ccc(O)cc1)NC(=O)[C@H](CO)NC(=O)[C@H](Cc1c[nH]c2ccccc12)NC(=O)[C@H](Cc1cnc[nH]1)NC(=O)[C@@H]1CCC(=O)N1)C(=O)N[C@@H](CCCNC(=N)N)C(=O)N1CCC[C@H]1C(=O)NNC(N)=O` [GOSERELIN ACETATE]: the half-inhibitory concentration (IC50) in experiment [1], in experiment [2], in experiment [3] and in experiment [4] was over 133 µM in each case.
As to `CO/N=C(\C(=O)N[C@@H]1C(=O)N2C(C(=O)O)=C(COC(C)=O)CS[C@H]12)c1csc(N)n1` [CEFOTAXIME SODIUM], the IC50 is over 133 µM in experiment [1], 24 µM in experiment [2], over 133 µM in experiment [3] and over 133 µM in experiment [4].
Turning to `CC[C@]1(O)C[C@@H]2CN(CCc3c([nH]c4ccccc34)[C@@](C(=O)OC)(c3cc4c(cc3OC)N(C)[C@H]3[C@@](O)(C(=O)OC)[C@H](OC(C)=O)[C@]5(CC)C=CCN6CC[C@]43[C@@H]65)C2)C1` [VINBLASTINE], the IC50 in experiment [1] was over 133 µM; in experiment [2], 35.1 µM; in experiment [3], over 133 µM; in experiment [4], over 133 µM.
Regarding `CN(C)C(=O)Oc1cccc([N+](C)(C)C)c1` [NEOSTIGMINE], the IC50 in experiment [1], in experiment [2], in experiment [3] and in experiment [4] was over 133 µM each time.
As for `CCC(=O)O[C@@H]1CC(=O)O[C@H](C)C/C=C/C=C/[C@H](O)[C@H](C)C[C@H](CC=O)[C@H](O[C@@H]2O[C@H](C)[C@@H](O[C@H]3C[C@@](C)(O)[C@@H](OC(=O)CC)[C@H](C)O3)[C@H](N(C)C)[C@H]2O)[C@H]1OC` [MIDECAMYCIN], the IC50 in experiment [1] is over 133 µM; in experiment [2], over 133 µM; in experiment [3], over 133 µM; in experiment [4], 14.3 µM.
